Earlier results as cited in US12605340B2, “Extended release composition of 2-(2-Aminothiazol-4-yl)-N-[4-(2{[(2R)-2-hydroxy-2-phenylethyl] amino} ethyl) phenyl] acetamide” (Zim Laboratories Limited, priority 2020, dated 2026).
Read-outs that look alike come from different tables or passages of the source.

Solubility (in dimethyl sulfoxide): soluble | Solubility (in methanol): soluble | Solubility (in water): practically insoluble
SMILES: Nc1nc(CC(=O)Nc2ccc(CCNC[C@H](O)c3ccccc3)cc2)cs1 [Mirabegron, 2(2-aminothiazol-4-yl)-N-[4-(2-{[(2R)-2-hydroxy2phenylethyl]amino}ethyl)phenyl] acetamide]
